Source: patent US8217053B2, “Camptothecin derivatives with antitumor activity” (Indena S.p.A., priority 2006, dated 2012)
≈ marks a conversion by molar mass, not a printed value.

Columns and labels:
lung tumor model = test: In vivo comparison on a lung tumor model; details: dose 50 mg/kg/inj.
Excerpt: Compound thio-SN38 (IDN6156) was transformed into thio-CPT11 (thio-Irinotecan) according to procedures for the conversion of SN38 to CPT11 (Irinotecan) reported in the literature. The resulting compound thio-irinotecan was compared in vivo with close non-sulforated analogue in clinical use (CPT11) on a lung tumor model highly sensitive to the standard references.

[1] = biological target: T1, human recombinant enzyme (full length top1) (Homo sapiens, UniProt P11387); test: Topoisomerase-I-dependent DNA rupture assay (DNA damage persistence); format: biochemical; details: 0.6 M NaCl added after 30 min incubation with 10 μM of the drug
T1 construct: the human recombinant enzyme (full length top1)
T1 sequence (P11387 1-765): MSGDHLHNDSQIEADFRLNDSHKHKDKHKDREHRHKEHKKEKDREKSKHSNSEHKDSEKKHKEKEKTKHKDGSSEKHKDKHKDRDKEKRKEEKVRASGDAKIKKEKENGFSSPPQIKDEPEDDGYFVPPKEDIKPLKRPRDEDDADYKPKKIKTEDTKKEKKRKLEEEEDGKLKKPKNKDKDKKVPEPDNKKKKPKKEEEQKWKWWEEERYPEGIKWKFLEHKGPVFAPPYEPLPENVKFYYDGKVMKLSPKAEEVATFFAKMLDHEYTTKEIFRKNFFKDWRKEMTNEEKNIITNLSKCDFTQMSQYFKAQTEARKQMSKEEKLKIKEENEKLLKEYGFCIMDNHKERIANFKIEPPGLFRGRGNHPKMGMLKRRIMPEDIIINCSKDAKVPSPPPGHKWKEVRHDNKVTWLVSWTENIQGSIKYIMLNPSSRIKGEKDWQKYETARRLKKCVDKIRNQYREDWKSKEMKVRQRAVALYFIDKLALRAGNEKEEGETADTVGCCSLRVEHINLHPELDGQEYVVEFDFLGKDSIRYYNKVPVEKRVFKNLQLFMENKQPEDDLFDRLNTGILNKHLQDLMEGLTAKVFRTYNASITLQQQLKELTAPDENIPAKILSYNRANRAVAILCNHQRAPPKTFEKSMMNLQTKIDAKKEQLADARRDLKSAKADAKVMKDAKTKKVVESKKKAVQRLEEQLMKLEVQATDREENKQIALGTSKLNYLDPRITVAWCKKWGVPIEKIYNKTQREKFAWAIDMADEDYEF

[2] = tested on: NCI-H460 cell line (NSCL cancer); test: Cell growth inhibition assay (cytotoxicity); format: cell-based, human; details: counted 72 hours after exposure, 1 or 72 hr drug exposure; for IC50: Homo sapiens, NCI-H460, read-out: NCI-H460 IC50 (μg/mL) Cell count, H460 human large cell lung tumor cells; for NCI-H460 IC50 (μg/mL) Cell count: H460 human large cell lung tumor cells
Procedure: The compounds of the invention were tested in a cytotoxicity assay on a wide spectrum of tumour cells. By way of example, the cytotoxicity data on the NCI-H460 cell line (NSCL cancer) concerning two compounds of formula (I) are reported, using camptothecin and the drugs Topotecan and SN-38 as references:
H460 Cells from human large cell lung tumor were cultured in RPMI-1640 medium containing 10% foetal calf serum. Cell sensitivity was determined by cell growth inhibition assay after 1 or 72 hr drug exposure. The cells in logarithmic growth were collected and seeded in duplicate in 6-wells plates. […] IC50 is defined as the concentration inhibiting by 50% cell growth compared with untreated controls growth.

SMILES	Max BWL % (lung tumor model) [%]	TWI % (lung tumor model) [%]	Tox/Tot (lung tumor model)	LCK (0.5 g) (lung tumor model; 0.5 g)	Persistence of DNA damage (%) ([1]; time 0 min)	Persistence of DNA damage (%) ([1]; time 1 min)	Persistence of DNA damage (%) ([1]; time 5 min)	Persistence of DNA damage (%) ([1]; time 10 min)	IC50 [2] [µg/mL]	NCI-H460 IC50 (μg/mL) Cell count [2] [µg/mL]
CCc1c2c(nc3ccc(OC(=O)N4CCC(N5CCCCC5)CC4)cc13)-c1cc3c(c(=O)n1C2)COC(=O)[C@]3(O)CC [CPT 11]	15	91	0/5	1.8						
CC[C@@]1(O)C(=O)OCc2c1cc1n(c2=O)Cc2cc3ccccc3nc2-1 [Camptothecin]					100	58	23	20		
CC[C@@]1(O)C(=O)OCc2c1cc1n(c2=S)Cc2cc3ccccc3nc2-1 [IDN 6070, Thio-camptothecin]					100	33	10	10	0.05 ± 0.021 (≈ 0.137 µM)	
CC[C@@]1(O)C(=O)OCc2c1cc1n(c2=S)C(N=[N+]=[N-])c2cc3ccccc3nc2-1 (some centres unmarked) [IDN 6092]					100	35	18	15		0.3 ± 0.07
CC[C@@]1(O)C(=O)OCc2c1cc1n(c2=S)C(N=[N+]=[N-])c2cc3ccccc3nc2-1 (some centres unmarked) [IDN 6093]										0.72 ± 0.2
CCc1c2c(nc3ccc(O)cc13)-c1cc3c(c(=S)n1C2)COC(=O)[C@]3(O)CC [IDN 6156, ThioSN-38]					100	100	80	60	0.0095 ± 0.0007 (≈ 0.0233 µM)	
CC[C@@]1(O)C(=O)OCc2c1cc1n(c2=S)Cc2cc3c(CN(C)C)c(O)ccc3nc2-1 [IDN 6180, Thio-Topotecan]									0.115 ± 0.021 (≈ 0.263 µM)	
CC[C@@]1(O)C(=O)OCc2c1cc1n(c2=S)Cc2cc3cc(O)ccc3nc2-1 [IDN 6181, 10-hydroxy-Thio-Camptothecin]					100	88	50	22	0.035 ± 0.011 (≈ 0.092 µM)	
CCc1c2c(nc3ccc(O)cc13)-c1cc3c(c(=O)n1C2)COC(=O)[C@]3(O)CC [SN38, 10-hydroxy-7-ethylcamptothecin, reference compound]					100	60	33	28		
CC[C@@]1(O)C(=O)OCc2c1cc1n(c2=O)Cc2cc3c(CN(C)C)c(O)ccc3nc2-1 [Topotecan, reference compound]					100	65	20	10		
